{"source": "paper PMC9853918", "about": "(Journal of chemical information and modeling, 2022)", "key": {"[1]": {"target": "(UniProt D5GU71)", "sequence (D5GU71 1-754)": "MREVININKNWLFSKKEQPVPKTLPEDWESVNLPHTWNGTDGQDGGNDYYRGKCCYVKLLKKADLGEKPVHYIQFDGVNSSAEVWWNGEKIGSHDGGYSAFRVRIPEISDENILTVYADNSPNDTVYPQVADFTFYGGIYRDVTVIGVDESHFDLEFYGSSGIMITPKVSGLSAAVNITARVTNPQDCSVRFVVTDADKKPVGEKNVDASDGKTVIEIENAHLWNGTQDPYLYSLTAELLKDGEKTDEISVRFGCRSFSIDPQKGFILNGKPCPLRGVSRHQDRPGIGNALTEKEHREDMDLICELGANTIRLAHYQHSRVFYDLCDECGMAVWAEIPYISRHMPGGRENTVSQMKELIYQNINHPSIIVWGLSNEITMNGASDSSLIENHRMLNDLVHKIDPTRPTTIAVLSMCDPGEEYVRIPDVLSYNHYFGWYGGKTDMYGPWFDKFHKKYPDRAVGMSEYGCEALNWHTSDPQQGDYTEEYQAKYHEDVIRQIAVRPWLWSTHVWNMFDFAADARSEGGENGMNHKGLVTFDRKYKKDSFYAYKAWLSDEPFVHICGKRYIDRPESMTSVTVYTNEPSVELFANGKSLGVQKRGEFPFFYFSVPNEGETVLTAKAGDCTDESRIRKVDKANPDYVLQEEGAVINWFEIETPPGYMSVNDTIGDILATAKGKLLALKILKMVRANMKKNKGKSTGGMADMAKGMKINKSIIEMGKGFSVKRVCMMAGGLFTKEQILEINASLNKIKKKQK", "assay": "βGUS", "format": "biochemical, uncultured bacterium"}, "[2]": {"tested_on": "H11G11-BG βGUS", "assay": "βGUS", "format": "biochemical, uncultured bacterium", "conditions": "for efficacy: 0.5 nM GUS, 100 μM 4MUG, 1 hr at room temperature, negative = inhibition; for curve class (CC): dose-response curve class"}}, "data": [{"smiles": "O=C(Nc1cccc(-c2nc3ncccc3o2)c1)c1ccc(-c2cccc(Cl)c2Cl)o1", "note": "[NCGC00099510, 5-(2,3-dichlorophenyl)-N-(3-(oxazolo[4,5-b]pyridine-2-yl)phenyl)furan-2-carboxamide]", "values": [{"measurement": "IC50", "setting": "[1]", "result": 9.6, "unit": "µM"}, {"measurement": "efficacy", "setting": "[2]", "result": "−70", "unit": "%"}, {"measurement": "curve class (CC)", "setting": "[2]", "result": "−1.2"}]}, {"smiles": "c1ccc(Nc2cc3c(cn2)CN(CC2CC2)CCN3)cc1", "note": "[NCGC00411059, 4-(cyclopropylmethyl)-N-phenyl-2,3,4,5-tetrahydro-1H-pyrido[4,3-e][1,4]diazepin-8-amine]", "values": [{"measurement": "efficacy", "setting": "[2]", "result": "−72", "unit": "%"}, {"measurement": "curve class (CC)", "setting": "[2]", "result": "−2.2"}]}]}
